Test results published in patent publication US8530470B2, “Chromenone derivatives” (Astrazeneca AB, priority 2011, dated 2013).
Like-named read-outs stand apart in the source and are kept apart here.

Columns and labels:
[1] = tested on: phospho AKT (ser473) in Jeko cells; assay: Detection of phospho AKT (ser473) in Jeko cells; assay type: cell-based; settings: Homo sapiens; Test (e); anti-IgM stimulated; approximate value; read-out: IC50 versus cellular phospho AKT (ser473) in Jeko cells
Procedure: (e) Protocol for Detection of Phospho AKT (ser473) in Jeko Cells
Compounds at ×10 final concentration in 10 μl of 1% (v/v) DMSO are added to the wells of a Greiner V-bottomed 96 well plate. Compounds are dosed in a 10-point concentration range from 1 μM top dose, 8 compounds are dosed on one plate. There are 8 DMSO positive control wells per plate which have been dosed with vehicle and anti-IgM, and 8 negative control wells which have been dosed with vehicle and assay buffer. Final vehicle concentration is 0.1% DMSO. A reference PI3Kδ selective compound is included in each run. Jeko B cells (human mantle cell lymphoma, ATCC CRL-3006) are seeded into the Greiner 96 well V-bottomed plates containing compounds. Cells are seeded at 100,000 cell/well in 70 μl of RPMI containing 1% glutamine.
Cell plates are incubated for 1 hour in a 37° C. incubator. After this compound pre-incubation time, anti-IgM (F(ab′)2 fragment goat anti-human IgM, Stratech 109-006-129) is added to the plates at ×5 final concentration in 20 μl of assay buffer (RPMI containing 1% glutamine). Final anti-IgM concentration is 0.06 μg/ml or an equivalent EC90 dose. Plates are incubated at 37° C. for 10 min, subsequently plates are immediately placed on ice and centrifuged at […] for 4 min. On ice, supernatants are carefully removed with a manual pipette and 40 μl lysis buffer added. […]

[2] = tested on: phospho AKT (ser473) in MDA-MB-468 cells; assay: Detection of phospho AKT (ser473) in MDA-MB-468 cells; assay type: cell-based; settings: Homo sapiens, Test (b), 2 hours incubation, approximate value, read-out: IC50 versus cellular phospho AKT (ser473) in MDA-MB-468 cells
Procedure: (b) Protocol for Detection of Phospho AKT (ser473) in MDA-MB-468 Cells
MDA-MB-468 cells (human breast adenocarcinoma ATCC HTB 132) are seeded into Greiner 384 well black flat-bottomed plates by automated cell culture robot (Selec T). Cells can also be maintained manually and seeded into plates using multidrop or Wellmate. Cells seeded at 1500 cell/well in 40 μl of DMEN containing 10% FCS and 1% glutamine. Cell plates are incubated for 18 hours in a 37° C. incubator.
Compounds are dosed onto cells using an Echo acoustic dispenser, which dispenses nl quantities of compound or DMSO. Compounds are dosed in a 12 point concentration range from 30 μM top dose, 28 compounds are dosed on one plate. There are 17 DMSO only positive control wells per plate, and 16 negative control well which have been dosed with a concentration of reference compound that will knockout the pAKT signal.
Plates are incubated at 37° C. for 2 hours, cells are the fixed by the addition of 10 μl of a 3.7% Formaldehyde solution in a fume cupboard using a Wellmate.
After 30 min to allow for fixation, the fixative and media are removed and the plates washed with Proclin PBS/A using Tecan PW384 plate washer in a fume cupboard. Wells are blocked and permeabilised with the addition of 40 μl of PBS containing 0.5% Tween20 and 1% marvel using a Wellmate and incubated for 60 min at room temperature.
Permeabilisation and blocking buffer removed using Tecan PW384 plate washer, then 20 μl primary antibody solution added using a Wellmate. The primary antibody solution is a 1:500 dilution of Rabbit anti-phospho AKT Ser 473 (Cell signalling technologies catalogue number #3787) in PBS/T containing 1% marvel (dried milk powder) and incubated overnight at 4° C.
Plates are washed using a Tecan PW384 plate washer three times with Phosphate Buffered Saline+0.05% (v/v) Polysorbate20 and Proclin300 (Supelco). 20 μl of secondary antibody solution is then added to each well using a Wellmate and incubated for 1 hour at Room Temp. The secondary antibody solution is a 1:1000 dilution of Alexa Fluor 488 anti-Rabbit (Molecular Probes cat no A11008) diluted in Phosphate Buffered Saline+0.05% (v/v) Polysorbate20 containing 1% marvel. Plates are washed three times as before then […] added to each well and plates sealed with black plate sealer.
The plates are read on an Acumen reader as soon as possible. Using this system IC50 values can be generated and quality of plates determined by control wells. Reference compounds are run each time to monitor assay performance.

PI3Kβ = PI3Kβ (Homo sapiens, UniProt P42338); assay: In vitro enzyme inhibition assay (Kinase Glo), PI3Kβ; assay type: biochemical
Procedure: (§1) (a) In Vitro Enzyme Inhibition Assay
(§2) The inhibition of PI3Kβ, PI3Kα, PI3Kγ and PI3Kδ was evaluated in a Kinase Glo based enzyme activity assay using human recombinant enzymes. The assay measures depletion of ATP after incubation with enzyme, PIP2 and ATP plus compound. ATP at the end of the reaction is detected by addition of Kinase Glo reagent, in this the Ultra Glo™ luciferase (Promega) uses the ATP as a substrate to catalyze the mono-oxygenation of luciferin and the generation of light. A direct relationship exists between the luminescence measured with the Kinase-Glo Plus Reagent and the amount of ATP remaining in a completed kinase reaction and luminescence is inversely related to kinase activity. Twelve different compound concentrations were tested and raw data from the inhibition of PI3Kβ, PI3Kα, PI3Kγ and PI3Kδ was plotted versus inhibitor concentration.
(§3) Compounds in 100% DMSO were added to assay plates by acoustic dispensing. PI3β was added in a Tris buffer (50 mM Tris pH7.4, 0.05% CHAPS, 2.1 mM DTT, and 10 mM MgCl2) and allowed to preincubate with compound for 20 min prior to addition of substrate solution containing PIP2 and ATP. The enzyme reaction was stopped after 80 min by the addition of Kinase Glo detection solution. […] The final concentration of DMSO, ATP and PIP2 in the assay were, 1%, 8 μM, and 80 μM respectively.
(§4) IC50 values were calculated using a log curve fitting to a non-linear regression package, fitting raw data to inhibitor concentration.

PI3Kδ = PI3Kδ (Homo sapiens, UniProt O00329); assay: In vitro enzyme inhibition assay (Kinase Glo), PI3Kδ; assay type: biochemical; settings: Test (a)
Procedure: as §1, §2, §3, §4

[3] = tested on: phosphoinositide (PI) 3-kinase; assay: Comparison of activity of enantiomers (PI 3-kinase inhibitory activity); assay type: biochemical; settings: (+) enantiomer of Example 1.03 compared with the other enantiomer
Text: The synthesis of optically active forms may be carried out by standard techniques of organic chemistry well known in the art, for example by synthesis from optically active starting materials or by resolution of a racemic form. Similarly, the above-mentioned activity may be evaluated using the standard laboratory techniques.
For the avoidance of doubt, the chiral centre in question is the carbon atom at the 2-position of the central pyrrolidine ring that is linked to the chromenone bicyclic ring.

[4] = Test (a), approximate value, read-out: IC50 versus PI3Kβ
[5] = Test (a), human recombinant enzyme, ATP 8 μM, PIP2 80 μM, Table A, read-out: PI3Kβ inhibition, IC50
[6] = approximate value, read-out: IC50 versus PI3Kδ
[7] = human recombinant enzyme, Table A, read-out: PI3Kδ inhibition, IC50

Sequence of PI3Kβ (P42338 whole entry): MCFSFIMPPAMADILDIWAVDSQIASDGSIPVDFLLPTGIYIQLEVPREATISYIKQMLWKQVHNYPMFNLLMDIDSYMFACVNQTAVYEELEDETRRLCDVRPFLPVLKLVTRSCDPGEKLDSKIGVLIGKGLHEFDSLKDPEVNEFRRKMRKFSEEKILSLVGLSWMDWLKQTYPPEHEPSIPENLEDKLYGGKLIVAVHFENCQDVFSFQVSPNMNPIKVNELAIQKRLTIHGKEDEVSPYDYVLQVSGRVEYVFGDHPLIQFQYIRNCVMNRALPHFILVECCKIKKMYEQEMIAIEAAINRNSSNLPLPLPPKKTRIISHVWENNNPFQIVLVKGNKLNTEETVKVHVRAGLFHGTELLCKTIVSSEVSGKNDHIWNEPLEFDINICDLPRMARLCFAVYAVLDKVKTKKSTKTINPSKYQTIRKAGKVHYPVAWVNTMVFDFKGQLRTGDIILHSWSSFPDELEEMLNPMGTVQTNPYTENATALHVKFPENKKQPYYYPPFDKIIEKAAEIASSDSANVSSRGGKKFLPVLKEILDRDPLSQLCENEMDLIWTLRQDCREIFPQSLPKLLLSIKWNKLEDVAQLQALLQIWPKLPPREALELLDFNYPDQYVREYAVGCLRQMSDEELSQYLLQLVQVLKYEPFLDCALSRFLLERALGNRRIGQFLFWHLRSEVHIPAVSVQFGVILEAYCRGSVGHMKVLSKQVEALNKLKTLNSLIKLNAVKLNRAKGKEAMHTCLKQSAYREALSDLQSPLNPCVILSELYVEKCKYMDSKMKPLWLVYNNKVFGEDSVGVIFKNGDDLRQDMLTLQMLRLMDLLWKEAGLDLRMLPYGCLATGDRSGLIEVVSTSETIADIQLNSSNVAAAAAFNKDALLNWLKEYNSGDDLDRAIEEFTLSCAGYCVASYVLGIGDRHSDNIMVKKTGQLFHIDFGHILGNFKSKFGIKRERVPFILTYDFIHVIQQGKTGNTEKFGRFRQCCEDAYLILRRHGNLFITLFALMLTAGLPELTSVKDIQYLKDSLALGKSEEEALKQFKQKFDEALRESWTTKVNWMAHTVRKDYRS
Sequence of PI3Kβ (P27986 whole entry partner): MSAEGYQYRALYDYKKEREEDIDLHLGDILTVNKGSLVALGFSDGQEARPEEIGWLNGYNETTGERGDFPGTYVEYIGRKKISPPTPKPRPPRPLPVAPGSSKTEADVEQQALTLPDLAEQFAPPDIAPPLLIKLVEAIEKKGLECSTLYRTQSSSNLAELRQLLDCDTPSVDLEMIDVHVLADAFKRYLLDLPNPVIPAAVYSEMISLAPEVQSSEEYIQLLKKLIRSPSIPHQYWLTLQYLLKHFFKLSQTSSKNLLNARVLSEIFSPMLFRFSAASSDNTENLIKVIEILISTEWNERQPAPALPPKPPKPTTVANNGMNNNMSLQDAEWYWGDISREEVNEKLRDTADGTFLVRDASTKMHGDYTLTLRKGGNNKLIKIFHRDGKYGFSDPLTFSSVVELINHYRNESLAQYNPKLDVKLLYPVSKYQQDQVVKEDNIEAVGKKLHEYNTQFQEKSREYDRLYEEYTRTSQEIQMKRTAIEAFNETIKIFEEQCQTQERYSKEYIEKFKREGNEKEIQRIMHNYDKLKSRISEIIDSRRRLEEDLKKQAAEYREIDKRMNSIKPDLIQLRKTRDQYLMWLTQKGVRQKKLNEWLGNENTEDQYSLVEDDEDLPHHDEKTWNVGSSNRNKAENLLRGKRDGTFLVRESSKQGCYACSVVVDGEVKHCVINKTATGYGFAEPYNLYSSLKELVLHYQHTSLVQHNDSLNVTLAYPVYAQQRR
Sequence of PI3Kδ (O00329 whole entry): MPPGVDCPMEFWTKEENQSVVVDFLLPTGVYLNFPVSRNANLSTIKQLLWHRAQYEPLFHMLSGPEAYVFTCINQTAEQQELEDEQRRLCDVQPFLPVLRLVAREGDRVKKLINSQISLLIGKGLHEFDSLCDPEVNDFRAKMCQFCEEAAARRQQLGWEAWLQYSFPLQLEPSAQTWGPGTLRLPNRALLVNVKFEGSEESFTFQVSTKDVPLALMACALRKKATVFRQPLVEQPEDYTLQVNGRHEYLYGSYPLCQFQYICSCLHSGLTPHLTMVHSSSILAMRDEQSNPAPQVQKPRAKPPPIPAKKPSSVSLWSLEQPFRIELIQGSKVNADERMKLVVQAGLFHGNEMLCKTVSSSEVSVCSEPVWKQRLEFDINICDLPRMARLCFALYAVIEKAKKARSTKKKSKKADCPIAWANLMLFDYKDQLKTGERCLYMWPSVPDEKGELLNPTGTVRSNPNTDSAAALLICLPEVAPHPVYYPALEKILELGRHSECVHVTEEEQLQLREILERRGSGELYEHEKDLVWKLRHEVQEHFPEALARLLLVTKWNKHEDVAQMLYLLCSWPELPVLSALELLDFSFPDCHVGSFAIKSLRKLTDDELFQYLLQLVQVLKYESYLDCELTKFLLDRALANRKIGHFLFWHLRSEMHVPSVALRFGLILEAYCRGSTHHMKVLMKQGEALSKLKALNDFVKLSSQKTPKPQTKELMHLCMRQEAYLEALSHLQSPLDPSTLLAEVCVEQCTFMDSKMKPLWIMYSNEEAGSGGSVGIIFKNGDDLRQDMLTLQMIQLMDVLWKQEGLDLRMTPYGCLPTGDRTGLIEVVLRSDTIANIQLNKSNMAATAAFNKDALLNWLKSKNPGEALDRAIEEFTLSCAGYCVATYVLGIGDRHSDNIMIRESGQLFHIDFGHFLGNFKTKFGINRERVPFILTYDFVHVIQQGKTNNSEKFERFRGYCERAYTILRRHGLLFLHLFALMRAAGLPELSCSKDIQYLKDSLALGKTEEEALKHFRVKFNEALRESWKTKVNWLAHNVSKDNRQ
Sequence of PI3Kδ (P27986 whole entry partner): as the sequence (P27986 whole entry partner) above

| Structure (SMILES) | IC50 [1] [nM] | IC50 [2] [nM] | IC50 (PI3Kβ; [4]) [nM] | IC50 (PI3Kβ; [5]) [nM] | IC50 (PI3Kδ; [6]) [nM] | IC50 (PI3Kδ; [7]) [nM] | activity relative to the other enantiomer [3] | IC50 (PI3Kβ; read-out: PI3Kβ inhibition, IC50) [nM] |
| --- | --- | --- | --- | --- | --- | --- | --- | --- |
| O=C(c1cc([C@H]2CCCN2c2cc(F)cc(F)c2)c2oc(N3CCOCC3)cc(=O)c2c1)N1CCOCC1 [Example 1.03b, 8-[(2R)-1-(3,5-difluorophenyl)pyrrolidin-2-yl]-6-(morpholine-4-carbonyl)-2-morpholino-chromen-4-one] | ~7 | ~1 | ~7 | 7 | ~9 | 9 |  |  |
| O=C(c1cc([C@@H]2CCCN2c2cc(F)cc(F)c2)c2oc(N3CCOCC3)cc(=O)c2c1)N1CCOCC1 [Example 1.03a, 8-[(2S)-1-(3,5-difluorophenyl)pyrrolidin-2-yl]-6-(morpholine-4-carbonyl)-2-morpholino-4H-chromen-4-one] |  | ~27 | ~198 |  | ~282 |  | weaker activity |  |
| CN(C)C(=O)c1cc(C2CCCN2c2cccc(F)c2)c2oc(N3CCOCC3)cc(=O)c2c1 (centres unmarked) [Example 2.00, 8-(1-(3-fluorophenyl)pyrrolidin-2-yl)-N,N-dimethyl-2-morpholino-4-oxo-4H-chromene-6-carboxamide] |  | ~2 | ~9 |  | ~12 | 12 |  | 9 |
| COc1cccc(N2CCC[C@@H]2c2cc(C(=O)N3CCOCC3)cc3c(=O)cc(N4CCOCC4)oc23)c1 [Example 1.11, 8-[(2R)-(1-(3-methoxyphenyl)pyrrolidin-2-yl)]-6-(morpholine-4-carbonyl)-2-morpholino-4H-chromen-4-one] |  | ~8 | ~9 | 9 | ~15 | 15 |  |  |
